The numbers were not newly measured in patent US7863316B2, “Extended release formulation of Levetiracetam” (UCB Pharma S.A., priority 2005, dated 2011), which cites them from elsewhere.

SMILES strings stand for the structures.

Experiment in series [1]: not given
The source holds these as a separate data set.

For series [2] the following is noted: three different pH media, immediate release tablet.

Turning to `CC[C@@H](C(N)=O)N1CCCC1=O` [Levetiracetam, (−)-(S)-α-ethyl-2-oxo-1-pyrrolidine acetamide], under “acetonitrile”, the solubility in acetonitrile is listed as 5.7 g/100 mL. In addition, for the setting “chloroform”, the solubility in chloroform was 65.3 g/100 mL. Besides, the solubility in ethanol (ethanol) was 16.5 g/100 mL. In addition, under “methanol”, the solubility in methanol is on record as 53.6 g/100 mL. Further, the solubility in n-hexane result (n-hexane) is reported as “practically insoluble”. Also, under “water”, the aqueous solubility was 104 g/100 mL. In addition, in series [1] (after multiple twice daily dosing), the “time to steady state kinetics” value is 2 days. In addition, in series [1] (in vivo), the “bound to plasma proteins” value is “less than 10%”, the renal clearance was 0.036 L/h/kg, the total body clearance was 0.054 L/h/kg and the volume of distribution was 0.6 L/kg. Moreover, in series [1] (with food), the “decrease of cmax by food” value is on record as 20% and the “delay of Tmax by food” value was 1.5 h. Moreover, in series [2], the “tablet amount released in 15 minutes” value is listed as over 85%.
